Measured values: ChEMBL document CHEMBL3769371, “1-[(2E)-3-Phenylprop-2-enoyl]-1H-benzimidazoles as anticancer agents: synthesis, crystal structure analysis and binding studies of the most potent anticancer molecule with serum albumin” (Medchemcomm, 2015)

Columns and labels:
[1] = test system: CCRF-CEM; assay: Cytotoxicity against human CCRF-CEM cells assessed as cell growth at 10^-5 M after 48 hrs by SRB assay; format: functional; conditions: read-out: Activity
[2] = Cytotoxicity against human RPMI8226 cells assessed as cell growth at 10^-5 M after 48 hrs by SRB assay; format: functional; conditions: RPMI-8226, 48 h, read-out: Activity
[3] = test system: HT-29; assay: Cytotoxicity against human HT-29 cells assessed as cell growth at 10^-5 M after 48 hrs by SRB assay; format: functional; conditions: HT-29, 48 h, read-out: Activity
[4] = Cytotoxicity against human SW620 cells assessed as cell growth at 10^-5 M after 48 hrs by SRB assay; format: functional; conditions: SW-620, 48 h, read-out: Activity
[5] = Cytotoxicity against human SF268 cells assessed as cell growth at 10^-5 M after 48 hrs by SRB assay; format: functional; conditions: SF-268, 48 h, read-out: Activity
[6] = Cytotoxicity against human LOXIMVI cells assessed as cell growth at 10^-5 M after 48 hrs by SRB assay; format: functional; conditions: LOX IMVI, read-out: Activity
[7] = Cytotoxicity against human IGROV1 cells assessed as cell growth at 10^-5 M after 48 hrs by SRB assay; format: functional; conditions: IGROV-1, 48 h, read-out: Activity
[8] = Cytotoxicity against human OVCAR4 cells assessed as cell growth at 10^-5 M after 48 hrs by SRB assay; format: functional; conditions: OVCAR-4, 48 h, read-out: Activity
[9] = Cytotoxicity against human OVCAR8 cells assessed as cell growth at 10^-5 M after 48 hrs by SRB assay; format: functional; conditions: OVCAR-8, 48 h, read-out: Activity
[10] = test system: MDA-MB-231; assay: Cytotoxicity against human MDA-MB-231 cells assessed as cell growth at 10^-5 M after 48 hrs by SRB assay; format: functional; conditions: MDA-MB-231, 48 h, read-out: Activity
[11] = Cytotoxicity against human HL-60(TB) cells after 48 hrs by SRB assay; format: functional; conditions: HL-60, 48 h
[12] = Cytotoxicity against human HOP92 cells after 48 hrs by SRB assay; format: functional; conditions: HOP-92, 48 h
[13] = Cytotoxicity against human HCT15 cells after 48 hrs by SRB assay; format: functional; conditions: HCT-15, 48 h
[14] = test system: HT-29; assay: Cytotoxicity against human HT-29 cells after 48 hrs by SRB assay; format: functional; conditions: HT-29, 48 h
[15] = test system: KM12; assay: Cytotoxicity against human KM12 cells after 48 hrs by SRB assay; format: functional; conditions: KM12, 48 h
[16] = Cytotoxicity against human SNB75 cells after 48 hrs by SRB assay; format: functional; conditions: SNB-75, 48 h
[17] = Cytotoxicity against human OVCAR5 cells after 48 hrs by SRB assay; format: functional; conditions: OVCAR-5, 48 h, read-out: LC50 (the source's name)
[18] = test system: ACHN; assay: Cytotoxicity against human ACHN cells after 48 hrs by SRB assay; format: functional
[19] = Cytotoxicity against human TK10 cells after 48 hrs by SRB assay; format: functional; conditions: TK-10, 48 h
[20] = Cytotoxicity against human UO31 cells after 48 hrs by SRB assay; format: functional; conditions: UO-31, 48 h
[21] = Cytotoxicity against human PC3 cells after 48 hrs by SRB assay; format: functional; conditions: PC-3, 48 h
[22] = test system: MDA-MB-468; assay: Cytotoxicity against human MDA-MB-468 cells after 48 hrs by SRB assay; format: functional; conditions: MDA-MB-468, 48 h
[23] = target: T1, Albumin (Homo sapiens, UniProt P02768); assay: Binding affinity to human serum albumin at 0.25 to 2 uM at 303 K by fluorescence microscopic analysis in the presence of digitoxin; format: ADME; conditions: isolated protein
[24] = target: T1, Albumin; assay: Binding affinity to human serum albumin assessed Stern-Volmer quenching constant at 0.25 to 2 uM at 308 K by fluorescence microscopic analysis; format: ADME; conditions: isolated protein
[25] = target: T1, Albumin; assay: Binding affinity to human serum albumin at 0.25 to 2 uM at 288 K by fluorescence microscopic analysis; format: ADME; conditions: isolated protein
[26] = target: T1, Albumin; assay: Binding affinity to human serum albumin at 0.25 to 2 uM at 298 K by fluorescence microscopic analysis; format: ADME; conditions: isolated protein
[27] = target: T1, Albumin; assay: Binding affinity to human serum albumin at 0.25 uM at 303 K by fluorescence microscopic analysis in the presence of Cu2+; format: ADME; conditions: isolated protein
[28] = target: T1, Albumin; assay: Binding affinity to human serum albumin at 0.25 uM at 303 K by fluorescence microscopic analysis in the presence of K+; format: ADME; conditions: isolated protein
[29] = test system: MCF7; assay: Antiproliferative activity against human MCF7 cells at 10'5 M; format: functional
[30] = Antiproliferative activity against human MOLT4 cells at 10'5 M; format: functional, MOLT-4
[31] = read-out: LC50 (the source's name)

T1 sequence (P02768 whole entry): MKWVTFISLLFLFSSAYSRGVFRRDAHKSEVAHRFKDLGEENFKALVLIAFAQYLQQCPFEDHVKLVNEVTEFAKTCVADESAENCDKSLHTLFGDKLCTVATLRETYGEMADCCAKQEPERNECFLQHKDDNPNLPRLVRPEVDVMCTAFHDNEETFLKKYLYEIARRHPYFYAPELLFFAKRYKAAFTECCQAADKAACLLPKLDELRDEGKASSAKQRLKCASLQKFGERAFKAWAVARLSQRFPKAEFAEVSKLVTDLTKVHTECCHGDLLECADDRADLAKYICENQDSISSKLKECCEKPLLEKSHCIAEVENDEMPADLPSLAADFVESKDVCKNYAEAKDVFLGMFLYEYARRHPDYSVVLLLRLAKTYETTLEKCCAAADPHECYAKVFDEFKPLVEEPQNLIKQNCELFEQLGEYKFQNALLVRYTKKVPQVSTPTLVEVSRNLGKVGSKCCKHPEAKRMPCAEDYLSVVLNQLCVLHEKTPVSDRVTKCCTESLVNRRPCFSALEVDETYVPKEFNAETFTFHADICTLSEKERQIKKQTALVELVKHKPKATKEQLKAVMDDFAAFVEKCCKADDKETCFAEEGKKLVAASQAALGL

SMILES: O=C(/C=C/c1ccccc1)n1c(-c2ccc(Cl)cc2)nc2ccccc21
- growth at 10 µM [1]: -23.9%
- growth at 10 µM [2]: -31.1%
- growth at 10 µM [3]: -40.6%
- growth at 10 µM [4]: -55.1%
- growth at 10 µM [5]: -11.8%
- growth at 10 µM [6]: -82.9%
- growth at 10 µM [7]: 10.4%
- growth at 10 µM [8]: 30%
- growth at 10 µM [9]: -31.3%
- growth at 10 µM [10]: -26.5%
- GI50 [11]: 1400 nM
- TGI [11]: 4.88 µM
- CC50 [11, 31]: > 100 µM
- GI50 [12]: 2720 nM
- TGI [12]: 5.17 µM
- CC50 [12, 31]: 9.81 µM
- GI50 [13]: 1210 nM
- TGI [13]: 2880 nM
- CC50 [13, 31]: 6.9 µM
- GI50 [14]: 1340 nM
- TGI [14]: 7.05 µM
- CC50 [14, 31]: 29.8 µM
- GI50 [15]: 1510 nM
- TGI [15]: 3.71 µM
- CC50 [15, 31]: 9.16 µM
- GI50 [16]: 3.13 µM
- TGI [16]: 12.8 µM
- CC50 [16, 31]: 40.5 µM
- CC50 [17]: 49.7 µM
- GI50 [18]: 1170 nM
- TGI [18]: 2560 nM
- CC50 [18, 31]: 5.62 µM
- GI50 [19]: 2350 nM
- TGI [19]: 7.93 µM
- CC50 [19, 31]: 28 µM
- GI50 [20]: 1100 nM
- TGI [20]: 3.55 µM
- CC50 [20, 31]: 12.9 µM
- GI50 [21]: 1910 nM
- TGI [21]: 6.73 µM
- CC50 [21, 31]: 36.3 µM
- GI50 [22]: 1520 nM
- TGI [22]: 4.32 µM
- CC50 [22, 31]: 23.7 µM
- K [23]: 5.73 ×10³ /M
- KSV [24]: 1.14 ×10⁵ L/mol
- K [25]: 2.24 ×10⁵ /mol
- K [26]: 3.2 ×10⁴ /mol
- K [27]: 2.44 ×10³ /mol
- K [28]: 4.21 ×10³ /mol
- growth inhibition (GI) [29]: 89.71%
- growth inhibition (GI) [30]: 78.07%
